The values that follow come from patent publication US20130281396A1, “TREATMENT OF DISEASES BY EPIGENETIC REGULATION” (RVX Therapeutics Inc., priority 2012, published 2013).

As a reminder, the melting point is the temperature, or range, at which the solid turns liquid.

Molecules are shown by their SMILES. Converted amounts (≈) assume the structure as drawn.

One data set has as its system Caco-2 cells. The data set can be described thus: Caco-2 permeability (in vitro Caco-2 intestinal transport model). Format: in vitro ADME.
Conditions: not given
The text has this: The Caco-2 cell drug transport model is widely used for screening compounds in drug discovery to assess intestinal transport and predict absorption rates.
(Caco-2 monolayers are a common model of the intestinal barrier.)
For `O=c1cc(-c2ccc(O)cc2)oc2cc(O)cc(O)c12` [5,7-dihydroxy-2-(4-hydroxyphenyl)-4H-chomen-4-one], the “Apparent permeability (Papp)” value was 1.5 ×10⁻⁶ cm/s. For `CCCO` [Propanol], the “% Transported Paap” value was 10.1 ×10⁻⁶ cm/s. As to `Oc1ccc(C=Cc2cc(O)cc(O)c2)cc1` [Resveratrol], the “Apparent permeability (Papp)” value worked out at 3.34 ×10⁻⁶ cm/s.

In the next data set the target is T1, Brd4 bromodomain 1 (Homo sapiens, UniProt O60885).
T1 construct: Illustrative results with the first bromodomain of Brd4; made in house; host or cells: E. coli BL21(DE3)
Briefly: Inhibition of tetra-acetylated histone H4 binding to BET bromodomain (TR-FRET). To be noted: His-tagged first bromodomain of Brd4 (200 nM), biotinylated tetra-acetylated histone H4 peptide, 2 hours at room temperature. Here is the method:
Proteins were cloned and overexpressed with a N-terminal 6×His tag, then purified by nickel affinity followed by size exclusion chromatography. Briefly, E. coli BL21(DE3) cells were transformed with a recombinant expression vector encoding N-terminally Nickel affinity tagged bromodomains from Brd2, Brd3, Brd4. Cell cultures were incubated at 37° C. with shaking to the appropriate density and induced overnight with IPTG. The supernatant of lysed cells was loaded onto Ni-IDA column for purification. Eluted protein was pooled, concentrated and further purified by size exclusion chromatography. Fractions representing monomeric protein were pooled, concentrated, aliquoted, and frozen at −80° C. for use in subsequent experiments.
Binding of tetra-acetylated histone H4 and BET bromodomains was confirmed by a Time Resolved Fluorescence Resonance Energy Transfer (TR-FRET) method. N-terminally His-tagged bromodomains (200 nM) and biotinylated tetra-acetylated histone H4 peptide (25-50 nM, Millipore) were incubated in the presence of Europium Cryptate-labeled streptavidin (Cisbio Cat. #610SAKLB) and XL665-labeled monoclonal anti-His antibody (Cisbio Cat. #61HISXLB) in a white 96 well microtiter plate (Greiner). For inhibition assays, serially diluted test compound was added to these reactions in a 0.2% final concentration of DMSO. Final buffer concentrations were 30 mM HEPES pH 7.4, 30 mM NaCl, 0.3 mM CHAPS, 20 mM phosphate pH 7.0, 320 mM KF, 0.08% BSA). After 2 hours incubation at room temperature, the fluorescence by FRET was measured at 665 and 620 nm by a SynergyH4 plate reader (Biotek). Illustrative results with the first bromodomain of Brd4. The binding inhibitory activity was shown by a decrease in 665 nm fluorescence relative to 620 nm. IC50 values were determined from a dose response curve.
With `O=c1cc(-c2ccc(O)cc2)oc2ncccc12` [Example 1, 2-(4-Hydroxy-phenyl)-pyrano[2,3-b]pyridin-4-one], the “FRET activity (<50 uM)” value is reported as “Active”. On to `O=c1cc(-c2ccc(O)cc2)oc2cccnc12` [Example 2, 2-(4-Hydroxy-phenyl)-pyrano[3,2-b]pyridin-4-one], for which the “FRET activity (<50 uM)” value is recorded as “Active”. Same read-out and setting: the result for `O=c1cc(-c2ccc(O)c(Br)c2)oc2ncccc12` [Example 8, 2-(3-Bromo-4-hydroxyphenyl)-4H-pyrano[2,3-b]pyridin-4-one] reads “Active”.

Test system in a further data set: not given
Assay: not given
To be noted: value from S. P. Ng et al. (2005), footnote *; cited from earlier work.
In the case of `O=c1cc(-c2ccc(O)cc2)oc2cc(O)cc(O)c12` [5,7-dihydroxy-2-(4-hydroxyphenyl)-4H-chomen-4-one], the “Solubility (PBS)” value is reported as 3.37* μM.

The same data set, now with this note: value from S. P. Ng et al. (2005), footnote *; listed as apigenin; cited from earlier work.
Regarding `O=c1cc(-c2ccc(O)cc2)oc2cc(O)cc(O)c12` [5,7-dihydroxy-2-(4-hydroxyphenyl)-4H-chomen-4-one], the “Solubility (PBS)” value was 3.27 µM (≈ 0.884 µg/mL).

Test system in a further data set: not given
Assay: not given
Conditions: not given
The molecule `O=c1cc(-c2ccc(O)cc2)oc2cnccc12` [Example 3, 2-(4-Hydroxyphenyl)-pyrano[2,3-c]pyridin-4-one] displayed a melting point of 294 to 296 °C. On the same count and under the same terms, the result for `O=c1cc(-c2ccc(O)c(F)c2)oc2ncccc12` [Example 4, 2-(3-Fluoro-4-hydroxyphenyl)pyrano[2,3-b]pyridine-4-one] reads 267 to 268 °C. On the same count and under the same terms, the result for `Cc1cc(-c2cc(=O)c3cccnc3o2)ccc1O` [Example 5, 2-(4-Hydroxy-3-methylphenyl)-4H-pyrano[2,3-b]pyridine-4-one] reads 300 to 302 °C; that for `O=c1cc(-c2ccc(O)cc2)oc2ccncc12` [Example 6, 2-(4-Hydroxyphenyl)-4H-pyrano[3,2-c]pyridin-4-one], 306 to 308 °C; that for `O=c1cc(-c2ccc(O)c(Cl)c2)oc2ncccc12` [Example 7, 2-(3-Chloro-4-hydroxyphenyl)-4H-pyrano[2,3-b]pyridine-4-one], 259 to 262 °C.

As to `O=c1cc(-c2ccc(O)c(Br)c2)oc2ncccc12` [Example 8, 2-(3-Bromo-4-hydroxyphenyl)-4H-pyrano[2,3-b]pyridin-4-one], the melting point was in the range of 267 to 272 °C. With `COc1cc(-c2cc(=O)c3cccnc3o2)ccc1O` [Example 9, 2-(4-Hydroxy-3-methoxyphenyl)-4H-pyrano[2,3-b]pyridine-4-one], the melting point is 253 to 255 °C. With `COc1ccc(-c2cc(=O)c3cccnc3o2)cc1` [Example 10, 2-(4-Methoxyphenyl)-4H-pyrano[2,3-b]pyridine-4-one], the melting point lay in the range of 269 to 270 °C. Turning to `O=c1cc(-c2ccc(OCCO)cc2)oc2ncccc12` [Example 11, 2-(4-(2-Hydroxyethoxy)phenyl)-4H-pyrano[2,3-b]pyridine-4-one], the melting point lay in the range of 157 to 159 °C. Same read-out and setting: the figure for `CC(=O)Oc1ccc(-c2cc(=O)c3cccnc3o2)cc1` [Example 12, 4-(4-Oxo-4H-pyrano[2,3-b]pyridine-2-yl)phenyl acetate] is 167 to 169 °C; for `O=c1cc(-c2ccc(O)c(CO)c2)oc2ncccc12` [Example 13, 2-(4-Hydroxy-3-(hydroxymethyl)phenyl)-4H-pyrano[2,3′-b]pyridine-4-one] it is 226 to 227 °C.
